Patent publication US20170022171A1, “2,5-DISUBSTITUTED CYCLOPENTANECARBOXYLIC ACIDS AND THEIR USE” (Bayer Pharma Aktiengesellschaft, priority 2014, published 2017)

What follows are compounds tested against T1, mouse MMP-2 (Mus musculus, UniProt P33434) (assay: In vitro mouse MMP-2 inhibition test). Settings: not given.
T1 construct: purchased R&D Systems 924-MP
Type: biochemical
Text: The MMP-mediated amidolytic cleavage of a suitable peptide substrate leads to an increase in fluorescent light here too. The signal intensity of the fluorescent light is directly proportional to the enzyme activity. The active concentration of a test compound at which half the enzyme is inhibited (50% signal intensity of the fluorescent light) is reported as the IC50 value.
Recombinant mouse MMP-2 (from R&D Systems, 924-MP) is chemically activated in accordance with the manufacturer's instructions using APMA. 1 μl of the test compound to be analysed (as a solution in DMSO, suitable concentrations, for example, 1 nM to 30 μM) is pipetted into 24 μl of activated enzyme (final concentration, for example, 0.1 nM) in reaction buffer (50 mM Tris/HCl pH 7.5, 10 mM CaCl2, 150 mM NaCl, 0.05% Brij®-35) in a white 384-hole microtiter plate (MTP). The enzymatic reaction is started by adding the intramolecularly quenched Mca-Pro-Leu-Gly-Leu-Dpa(Dnp)-Ala-Arg-NH2 substrate (final concentration, for example, 10 μM; R&D Systems, ES-001), so as to result in a total test volume of 50 The course of the MMP-2 reaction is measured by measuring the fluorescence intensity (excitation 320 nm, emission 410 nm) over a suitable period of time (for example over 120 min at a temperature of 32° C.).

T1 sequence (P33434 110-662): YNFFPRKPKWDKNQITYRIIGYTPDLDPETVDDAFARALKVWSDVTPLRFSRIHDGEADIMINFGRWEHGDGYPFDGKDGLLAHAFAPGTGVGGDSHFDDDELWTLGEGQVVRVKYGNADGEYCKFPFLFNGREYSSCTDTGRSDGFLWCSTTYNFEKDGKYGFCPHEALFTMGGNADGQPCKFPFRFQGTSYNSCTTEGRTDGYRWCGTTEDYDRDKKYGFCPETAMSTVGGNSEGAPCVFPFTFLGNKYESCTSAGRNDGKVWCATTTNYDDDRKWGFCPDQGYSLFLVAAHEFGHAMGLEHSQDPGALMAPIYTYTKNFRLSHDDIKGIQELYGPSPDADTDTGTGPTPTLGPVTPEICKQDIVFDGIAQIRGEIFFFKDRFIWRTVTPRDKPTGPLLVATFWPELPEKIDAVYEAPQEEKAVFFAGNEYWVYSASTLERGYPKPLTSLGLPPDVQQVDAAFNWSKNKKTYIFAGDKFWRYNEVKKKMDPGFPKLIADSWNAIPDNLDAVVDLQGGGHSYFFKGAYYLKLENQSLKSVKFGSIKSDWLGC

Compound	IC50 [µM]
O=C(O)[C@@H]1[C@@H](Cn2nnc3ccc(C(F)(F)F)cc3c2=O)CC[C@H]1C(=O)c1ccc(SCc2ccccc2)cc1 (single isomer, unassigned) [Example 75, (+)-(1RS,2RS,5SR)-2-[4-(Benzylsulphanyl)benzoyl]-5-{[4-oxo-6-(trifluoromethyl)-1,2,3-benzotriazin-3(4H)-yl]methyl}cyclopentanecarboxylic acid]	4.2
O=C(O)[C@@H]1[C@@H](Cn2nnc3ccc(C(F)(F)F)cc3c2=O)CC[C@H]1C(=O)c1ccc(SCc2cccc(Cl)c2)cc1 (single isomer, unassigned) [Example 77, (+)-(1RS,2RS,5SR)-2-{4-[(3-Chlorobenzyl)sulphanyl]benzoyl}-5-{[4-oxo-6-(trifluoromethyl)-1,2,3-benzotriazin-3(4H)-yl]methyl}cyclopentanecarboxylic acid]	1.4
O=C(O)[C@@H]1[C@@H](Cn2nnc3ccc(C(F)(F)F)cc3c2=O)CC[C@H]1C(=O)c1ccc(SCc2ccc(Cl)c(Cl)c2)cc1 (single isomer, unassigned) [Example 80, (+)-(1RS,2RS,5SR)-2-{4-[(3,4-Dichlorobenzyl)sulphanyl]benzoyl}-5-{[4-oxo-6-(trifluoromethyl)-1,2,3-benzotriazin-3(4H)-yl]methyl}cyclopentanecarboxylic acid]	1.5
Cc1cccc(COc2ccc(C(=O)[C@@H]3CC[C@H](Cn4nnc5ccc(C)cc5c4=O)[C@H]3C(=O)O)cc2)c1 (single isomer, unassigned) [Example 98, (+)-(1RS,2RS,5SR)-2-{4-[(3-Methylbenzyl)oxy]benzoyl}-5-[(6-methyl-4-oxo-1,2,3-benzotriazin-3(4H)-yl)methyl]cyclopentanecarboxylic acid]	0.64
Cc1ccc2nnn(C[C@H]3CC[C@@H](C(=O)c4ccc(OCc5cccc(C(F)(F)F)c5)cc4)[C@@H]3C(=O)O)c(=O)c2c1 (single isomer, unassigned) [Example 101, (+)-(1RS,2SR,5RS)-2-[(6-Methyl-4-oxo-1,2,3-benzotriazin-3(4H)-yl)methyl]-5-(4-{[3-(trifluoromethyl)benzyl]oxy}benzoyl)cyclopentanecarboxylic acid]	0.49
Cc1ccc2nnn(C[C@H]3CC[C@@H](C(=O)c4ccc(OCc5cccc(OC(F)(F)F)c5)cc4)[C@@H]3C(=O)O)c(=O)c2c1 (single isomer, unassigned) [Example 110, (+)-(1RS,2SR,5RS)-2-[(6-Methyl-4-oxo-1,2,3-benzotriazin-3(4H)-yl)methyl]-5-(4-{[3-(trifluoromethoxy)benzyl]oxy}benzoyl)cyclopentanecarboxylic acid]	1.1
COC(=O)Nc1cccc(COc2ccc(C(=O)[C@@H]3CC[C@H](Cn4nnc5ccc(C(F)(F)F)cc5c4=O)[C@H]3C(=O)O)cc2)c1 (stereo in doubt) [Example 31, (+)-(1RS,2RS,5SR)-2-[4-({3-[(Methoxycarbonyl)amino]benzyl}oxy)benzoyl]-5-{[4-oxo-6-(trifluoromethyl)-1,2,3-benzotriazin-3(4H)-yl]methyl}cyclopentanecarboxylic acid]	0.99
(+)-(1RS,2RS,5SR)-2-{4-[(3,4-Dichlorobenzyl)oxy]benzoyl}-5-{[4-oxo-6-(trifluoromethyl)-1,2,3-benzotriazin-3(4H)-yl]methyl}cyclopentanecarboxylic acid [Example 28]	1
(+)-(1RS,2SR,5RS)-2-{[4-Oxo-6-(trifluoromethyl)-1,2,3-benzotriazin-3(4H)-yl]methyl}-5-{4-[(2-phenylethy)sulphanyl]benzoyl}cyclopentanecarboxylic acid [Example 83]	8.1

The next compounds have a lower IC50 than those just listed; values first:

IC50 [µM]	Compound
0.42	CCCCCCOc1ccc(C(=O)[C@@H]2CC[C@H](Cn3nnc4ccc(C)cc4c3=O)[C@H]2C(=O)O)cc1 (single isomer, unassigned) [Example 121, (+)-(1RS,2RS,5SR)-2-[4-(Hexyloxy)benzoyl]-5-[(6-methyl-4-oxo-1,2,3-benzotriazin-3(4H)-yl)methyl]cyclopentanecarboxylic acid]
0.29	Cc1ccc2nnn(C[C@H]3CC[C@@H](C(=O)c4ccc(OCc5cccc(Cl)c5)cc4)[C@@H]3C(=O)O)c(=O)c2c1 (single isomer, unassigned) [Example 104, (+)-(1RS,2RS,5SR)-2-{4-[(3-Chlorobenzyl)oxy]benzoyl}-5-[(6-methyl-4-oxo-1,2,3-benzotriazin-3(4H)-yl)methyl]cyclopentanecarboxylic acid]
0.25	O=C(O)[C@H]1[C@H](Cn2nnc3ccc(C(F)(F)F)cc3c2=O)CC[C@@H]1C(=O)c1ccc(OCc2ccccc2)cc1 (racemic) [Example 11, (+/−)-(1RS,2RS,5SR)-2-[4-(Benzyloxy)benzoyl]-5-{[4-oxo-6-(trifluoromethyl)-1,2,3-benzotriazin-3(4H)-yl]methyl}cyclopentanecarboxylic acid]
0.13	Cc1ccc2nnn(C[C@H]3CC[C@@H](C(=O)c4ccc(OCC5CCCCC5)cc4)[C@@H]3C(=O)O)c(=O)c2c1 (single isomer, unassigned) [Example 117, (+)-(1RS,2RS,5SR)-2-[4-(Cyclohexylmethoxy)benzoyl]-5-[(6-methyl-4-oxo-1,2,3-benzotriazin-3(4H)-yl)methyl]cyclopentanecarboxylic acid]
0.057	Cc1ccc2nnn(C[C@H]3CC[C@@H](C(=O)c4ccc(OCc5ccccc5)cc4)[C@@H]3C(=O)O)c(=O)c2c1 (single isomer, unassigned) [Example 92, (+)-(1RS,2RS,5SR)-2-[4-(Benzyloxy)benzoyl]-5-[(6-methyl-4-oxo-1,2,3-benzotriazin-3(4H)-yl)methyl]cyclopentanecarboxylic acid]

Each compound was assayed on rat hepatocytes (assay: Hepatocyte assay for determination of metabolic stability). Settings: after incubation with rat hepatocytes.
Type: in vitro ADME
Experimental: The metabolic stability of test compounds towards hepatocytes is determined by incubating the compounds at low concentrations (preferably below or around 1 μM) and at low cell counts (preferably at 1*10^6 cells/ml) in order to ensure maximum linearity of kinetic conditions in the experiment. Seven samples from the incubation solution are taken for the LC-MS analysis within a fixed time pattern, in order to determine the half-life (i.e. the degradation) of the particular compound. This half life is used to calculate various “Clearance” parameters (CL) and “Fmax” values (see below).
The CL and Fmax values are a measure of the phase 1 and phase 2 metabolism of the compounds in the hepatocytes. In order to minimize the influence of the organic solvent on the enzymes in the incubation batches, the concentration thereof is generally limited to 1% (acetonitrile) or 0.1% (DMSO).
For all species and breeds, a hepatocyte cell count in the liver of 1.1*10^8 cells/g of liver is expected.
The parameters calculated and the meanings thereof are: • Fmax well-stirred [%] maximum possible bioavailability after oral administration • Calculation: (1−CLblood well-stirred/QH)*100 • CLblood well-stirred [L/(h*kg)] calculated blood clearance (well-stirred model) • Calculation: (QH*CL′intrinsic)/(QH+CL′intrinsic) • CL′intrinsic[ml/(min*kg)] maximum ability of the liver (of the hepatocytes) to metabolize a compound (assuming that the liver blood flow is not rate-limiting) • Calculation: CL′intrinsic, apparent*species-specific hepatocyte count [1.1*10^8/g liver]*species-specific liver weight [g/kg] • CL′intrinsic, apparent[ml/(min*mg)] normalizes the elimination constant by dividing it by the hepatocyte cell count x used (x*10^6/ml) • Calculation: ke1[1/min]/(cell count [x*10^6]/incubation volume [ml]) • (QH=species-specific liver blood flow).

CLblood (calculated blood clearance, well-stirred) [mL/min/kg]	Fmax (maximum possible bioavailability after oral administration, well-stirred) [%]	Compound
18.7	73.3	O=C(O)[C@H]1[C@H](Cn2nnc3ccc(C(F)(F)F)cc3c2=O)CC[C@@H]1C(=O)c1ccc(OCc2ccccc2)cc1 (racemic) [Example 11, (+/−)-(1RS,2RS,5SR)-2-[4-(Benzyloxy)benzoyl]-5-{[4-oxo-6-(trifluoromethyl)-1,2,3-benzotriazin-3(4H)-yl]methyl}cyclopentanecarboxylic acid]
